This note sets out measurements from US8901276B2, “Peptide reagents and methods for detection of colon dysplasia” (The Regents of the University of Michigan, priority 2010, dated 2014).

Where no end group is shown, it is not given here.

In one test the test system is adenomatous polyps. As to the kind of experiment: Confocal microscopy of polyp biopsy after in vivo peptide administration. The arrangement: species or system CPC;Apc mice. The following applies: biopsy after in vivo FITC-peptide administration. The method, then:
Preferential binding of Peptide compared to the Control peptide 1 on the adenomatous polyps was confirmed with confocal microscopy. A polyp biopsy was taken after 5′-FITC-labeled peptide administration in vivo, incubated in 1 μg/mL Hoechst dye for 5 minutes to stain living nuclei, rinsed 3× with 1×PBS and imaged on a Leica Confocal Microscope (Leica Microsystems, Bannockburn, Ill.).

The next test relates to excised polyps. In words: Ex vivo peptide binding to excised polyps. The arrangement: species or system CPC;Apc mice. The following applies: 100 μM, 5 min. The method, then: Polyps from CPC;Apc mice (n=3 mice, 5 polyp pairs) were excised and washed 3× in PBS. The polyps were incubated in 100 μM peptide solution for 5 minutes and subsequently washed 3× with 1×PBS. Polyps were grossly imaged using the small animal endoscope to view binding to the polyp as a whole. Pairs of polyps (one candidate, one control) were imaged at a time to allow for the calculation of a candidate peptide to Control peptide 1 binding ratio for each pair analyzed. An average binding ratio was calculated ± one standard deviation. A similar procedure to determine mean grey scale values for image analysis was followed for the ex vivo polyps as described above for the in vivo polyps.

Turning to “QPIHPNNM (also: FITC or Cy5.5 label) [Peptide 1, tested FITC- or Cy5.5-labeled]”, in the test on adenomatous polyps, the “binding to adenomas, confocal images of biopsied polyps” value is reported as “bound more to adenomas than the Control peptide 1”. Besides, the “increase in binding compared to Control peptide 1” value in the test on excised polyps was approximately 2 fold.
